Reference: PubChem BioAssay AID1963436 (Molecular Pharmacology Branch, DTP, NCI, 2024)
pIC50: −log10 of the molar value.

Test system: OVCAR-5 complex spheroid (HUVEC/MSC), viability % T/C
Experiment: Anticancer human tumor OVCAR-5 cell line growth inhibition [Asc];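 note: spheroids exposed to agents for 7 days before readout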;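 for viability, T/C: 100% = DMSO vehicle-treated wells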
Settings: for pIC50: curve of first compound; for viability, T/C: stronger effect = lower value
In short: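 Tumor cells were grown as complex spheroids with human endothelial cells (HUVEC) and human mesenchymal stem cells as stroma. Agents were tested alone and in combination, in half-log steps down from the clinical Cmax, or from 10 microM where Cmax was unknown.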

`O=C(c1ccc(F)c(F)c1Nc1ccc(I)cc1F)N1CC(O)([C@@H]2CCCCN2)C1` + CNC(C)C(=O)NC1CN(S(=O)(=O)c2cccc(S(=O)(=O)N3CCC4CCC(C(=O)NC(c5ccccc5)c5ccccc5)N4C(=O)C(NC(=O)C(C)NC)C3)c2)CCC2CCC(C(=O)NC(c3ccccc3)c3ccccc3)N2C1=O was tested. Which pIC50 (second compound 0.01 µM) did it give?
The pIC50 was 6.96.

What about the pIC50 (second compound 0.0316 µM) of the same compound?
Its pIC50 is 6.97.

What about the pIC50 (second compound 0.1 µM) of the same compound?
Its pIC50 is 7.12.

What about the pIC50 (second compound 0.316 µM) of the same compound?
Its pIC50 is 7.31.

And the pIC50 (second compound 1 µM)?
Its pIC50 is 7.14.

What about the viability, T/C (second compound 0.01 µM, first compound 0.00316 µM) of the same compound?
Its viability, T/C is 92.2%.

What about the viability, T/C (second compound 0.01 µM, first compound 0.01 µM) of the same compound?
Its viability, T/C is 80.4%.

What about the viability, T/C (second compound 0.01 µM, first compound 0.0316 µM) of the same compound?
The viability, T/C was 62.6%.

And the viability, T/C (second compound 0.01 µM, first compound 0.1 µM)?
The viability, T/C was 51.2%.

And the viability, T/C (second compound 0.01 µM, first compound 0.316 µM)?
The viability, T/C was 40.9%.

And the viability, T/C (second compound 0.01 µM, first compound 1 µM)?
The viability, T/C was 31.8%.

And the viability, T/C (second compound 0.0316 µM, first compound 0.00316 µM)?
The viability, T/C was 83.6%.

And the viability, T/C (second compound 0.0316 µM, first compound 0.01 µM)?
The viability, T/C was 78.1%.

And the viability, T/C (second compound 0.0316 µM, first compound 0.0316 µM)?
Its viability, T/C is 64.5%.

And the viability, T/C (second compound 0.0316 µM, first compound 0.1 µM)?
Its viability, T/C is 51.4%.

What about the viability, T/C (second compound 0.0316 µM, first compound 0.316 µM) of the same compound?
The viability, T/C was 36.7%.

And the viability, T/C (second compound 0.0316 µM, first compound 1 µM)?
The viability, T/C was 25.5%.

What about the viability, T/C (second compound 0.1 µM, first compound 0.00316 µM) of the same compound?
The viability, T/C was 80%.

What about the viability, T/C (second compound 0.1 µM, first compound 0.01 µM) of the same compound?
The viability, T/C was 79.1%.

What about the viability, T/C (second compound 0.1 µM, first compound 0.0316 µM) of the same compound?
Its viability, T/C is 62.5%.

And the viability, T/C (second compound 0.1 µM, first compound 0.1 µM)?
Its viability, T/C is 46.5%.

What about the viability, T/C (second compound 0.1 µM, first compound 0.316 µM) of the same compound?
The viability, T/C was 34.2%.

What about the viability, T/C (second compound 0.1 µM, first compound 1 µM) of the same compound?
Its viability, T/C is 30.3%.

What about the viability, T/C (second compound 0.316 µM, first compound 0.00316 µM) of the same compound?
The viability, T/C was 77.7%.

And the viability, T/C (second compound 0.316 µM, first compound 0.01 µM)?
Its viability, T/C is 67.3%.

And the viability, T/C (second compound 0.316 µM, first compound 0.0316 µM)?
The viability, T/C was 54.5%.

And the viability, T/C (second compound 0.316 µM, first compound 0.1 µM)?
Its viability, T/C is 42.8%.

And the viability, T/C (second compound 0.316 µM, first compound 0.316 µM)?
The viability, T/C was 32.8%.

And the viability, T/C (second compound 0.316 µM, first compound 1 µM)?
The viability, T/C was 26.8%.

And the viability, T/C (second compound 1 µM, first compound 0.00316 µM)?
Its viability, T/C is 79.8%.

And the viability, T/C (second compound 1 µM, first compound 0.01 µM)?
The viability, T/C was 76.9%.

And the viability, T/C (second compound 1 µM, first compound 0.0316 µM)?
The viability, T/C was 59.4%.

What about the viability, T/C (second compound 1 µM, first compound 0.1 µM) of the same compound?
The viability, T/C was 47.7%.

What about the viability, T/C (second compound 1 µM, first compound 0.316 µM) of the same compound?
Its viability, T/C is 29.7%.

What about the viability, T/C (second compound 1 µM, first compound 1 µM) of the same compound?
The viability, T/C was 24.1%.
